Consider four compounds from patent publication US20240116864A1, “XANTHOPHYLL DERIVATIVES” (priority 2020, published 2024).

This series concerns Caco-2 cell homogenates. Put plainly: Conversion of prodrug to parent compound (astaxanthin) in frozen/thawed unviable Caco-2 cell homogenates. It is filed as in vitro ADME. The source says: Formation of astaxanthin in resuspended Caco-2 cells previously frozen.
Human carboxylesterase 1 (hCE-1) and carboxylesterase 2 (hCE-2) are serine esterases involved in both drug metabolism and activation of prodrugs. The expression pattern of human carboxylesterase in Caco-2 (human colon adenocarcinoma) cell line is similar to human […] that expresses a much higher level of hCE-1 and lower level of hCE-2 (Drug Metab. Pharmacokinet. 21 (3): 173-185 (2006)).
Therefore, the formation of astaxanthin from compounds CCXX, CCXXI, CCXXII and CCXXVI was tested with Caco-2 cells that were frozen at −80° C. and thawed before testing. The freezing/thawing process without cryopreservants compromised the integrity of the membrane, as confirmed by positive staining of the dead cells with a dye exclusion method using trypan blue. Dead cells are not selective to compounds passing through the compromised membrane, eliminating the transport and permeation barriers to access the cell content and metabolic enzymes including the carboxylesterases.
The Caco-2 (colorectal adenocarcinoma) cellular line was obtained from Cordoba Cell Bank (CCB, CIQUIBIC, Cordoba, Argentina), #ATCC Passage: 18. #CCB Passage: 4. Culture conditions: Low Glucose DMEM (1 g/L)+Penicillin-Streptomycin+20% Fetal Bovine Serum (SFB). Cells were cultured in a 37° C. incubator with 5% CO2 on cell culture dishes. Once they reached confluence, cells were washed twice with Phosphate-buffered saline (PBS) and lifted after trypsinization. For trypsinization, 1 mL of trypsin was added, incubated for a few minutes in the 37° C. incubator, neutralized with supplemented culture medium and cells were collected in 15 mL tubes (Falcon). The tubes were centrifuged for 5 min at 1000 rpm, the supernatant was removed, and the cells were resuspended in supplemented medium. To determine the amount of viable (living) cells, a ½ dilution with trypan blue dye was made and counted in an automatic cell counter (more than 90% of live cells were measured). Finally, the tubes were centrifuged again, and cells were resuspended at a concentration of 5 million/mL in non-supplemented DMEM and placed in a −80° C. freezer. To determine the amount of non-viable cells after freezing and thawing, a ½ dilution with trypan blue dye was made and they were counted in an automatic cell counter and the dead cells were above 95%. Pools of unviable (“leaking”) cell homogenates were subsequently used for incubations with the compounds of interest.
A 1 mL frozen aliquot containing 5 million/mL of unviable Caco-2 cells was thawed and warmed at 37° C. A 0.010 mL aliquot of a stock solution of the compound in DMSO (2.5 mM) was added to the cells and incubated at 37 ° C. At selected timepoints, a 0.2 mL aliquot was removed and mixed with 0.5 mL of methanol containing retinyl acetate (0.011 mM) as an internal standard. The methanolic mixture was vigorously vortexed and 1 mL of chloroform was added to extract unreacted compound, astaxanthin and related compounds as well as the internal standard. After vigorous vortexing, the mixture was centrifuged at 8000 rpm for 10 min at 4° C. The chloroform phase was removed and dried under nitrogen flow. 1 mL of the sample solvent (THF/acetonitrile with 1% Formic acid) was added to the residue, mixed vigorously and filtered through a PVDF 0.22 um filter in a HPLC vial. The filtrate was stored in the autosampler at 5° C. and injected in the HPLC to measure the amount of internal standard, unreacted compound, free astaxanthin and its related compounds. The HPLC equipment was a UHPLC Nexera XR (Shimadzu)/PDA SPD-M3OA (Shimadzu) with a Shimpack GIST C18 100×2.1 mm, 2 um column at 40° C. Two HPLC methods were used, gradient and isocratic depending on the prodrug. Gradient method: flow 0.2 mL/m, mobile phase A (MPA): water with formic acid 0.1%, mobile phase B (MPB): acetonitrile with formic acid 0.1%, gradient: time 0 m 60/40, 2.5 m 10/90, 10.4 m 10/90. UV(PDA) detector 380 and 325 nm (for retinyl acetate). […]

Setting [1] is: unviable Caco-2 cells 5 million/mL, 37 °C, HPLC.

In the case of `CC1=C(/C=C/C(C)=C/C=C/C(C)=C/C=C/C=C(C)/C=C/C=C(C)/C=C/C2=C(C)C(=O)[C@@H](OC(=O)CNC(=O)c3cccnc3)CC2(C)C)C(C)(C)C[C@H](OC(=O)CNC(=O)c2cccnc2)C1=O` [CCXX, (all-E)-3S,3′S-Astaxanthin-di-N-nicotinoglycinate], under setting [1], the “Conversion efficiency to trans-astaxanthin (comparison between compounds)” value is “higher conversion efficiency to trans-astaxanthin than CCXXI and CCXXII”; the Conversion to trans-astaxanthin entry was “observed”.

Consider `CC1=C(/C=C/C(C)=C/C=C/C(C)=C/C=C/C=C(C)/C=C/C=C(C)/C=C/C2=C(C)C(=O)[C@@H](OC(=O)CCNC(=O)c3cccnc3)CC2(C)C)C(C)(C)C[C@H](OC(=O)CCNC(=O)c2cccnc2)C1=O` [CCXXI, (all-E)-3S,3′S-astaxanthin-di-N-nicotinoyl-β-alaninate], for which the Conversion to trans-astaxanthin entry under setting [1] is “observed”.

As for `CC1=C(/C=C/C(C)=C/C=C/C(C)=C/C=C/C=C(C)/C=C/C=C(C)/C=C/C2=C(C)C(=O)[C@@H](OC(=O)[C@H](NC(=O)c3cccnc3)C(C)C)CC2(C)C)C(C)(C)C[C@H](OC(=O)[C@@H](NC(=O)c2cccnc2)C(C)C)C1=O` [CCXXVI], for the setting “Caco-2”, the “Conversion to astaxanthin monoester” value is recorded as “only a small amount” and the “Stability over the same time frame” value is “stable”.

In the case of `CC1=C(/C=C/C(C)=C/C=C/C(C)=C/C=C/C=C(C)/C=C/C=C(C)/C=C/C2=C(C)C(=O)[C@@H](OC(=O)[C@@H](C)NC(=O)c3cccnc3)CC2(C)C)C(C)(C)C[C@H](OC(=O)[C@H](C)NC(=O)c2cccnc2)C1=O` [CCXXII], the Conversion to trans-astaxanthin result under setting [1] is “observed”.
